From patent US10307404B1, “Ocular formulations for drug-delivery to the posterior segment of the eye” (priority 2013, dated 2019)
Where two headings read alike, the source gives them in different places.

Experiment: PK of topical ocular sodium phosphate-based Gel Drop, concentrations 1 hour after last dose
Assay type: in vivo, Dutch-belted rabbits
Settings: Dutch-belted, rabbit
Excerpt: The Gel Drop of Compound-I was applied to eyes of Dutch-belted rabbits.

SMILES: Cl.NC(=O)c1c(OCc2c(F)cc(Br)cc2F)nsc1NC(=O)NCCCCN1CCCC1 [Compound-I, 3-[(4-bromo-2,6-difluorophenyl)methoxy]-5-[[[[4-(1-pyrrolidinyl)butyl]amino]carbonyl]amino]-4-isothiazolecarboxamide hydrochloride]
- concentration at 1 h (choroid, 2 mg/ml, pH 6, 2 mg/ml pH 6 Phos 0.2% BAK 0.005% Gly 2% PS80 1% Osmo 281, 3x/day 5 days, read-out: MEAN [choroid]): 357 nM
- concentration at 1 h (choroid, 2 mg/ml, pH 6, 2 mg/ml pH 6.0 Phos 0.2% BAK 0.005% Gly 2%, 3x/day 5 days, read-out: MEAN [choroid]): 532 nM
- concentration at 1 h (choroid, 2 mg/ml, pH 6.1, 2 mg/ml pH 6.1 BAK 0.005% Gly 2% Osmo 229, 3x/day 5 days, read-out: MEAN [choroid]): 462 nM
- concentration at 1 h (choroid, 2 mg/ml, pH 6.1, 2 mg/ml pH 6.1 Phos 0.05% BAK 0.005% Gly 2% PS80 1% Tylox 0.1% Osmo 239, 3x/day 5 days, read-out: MEAN [choroid]): 660 nM
- concentration at 1 h (choroid, 2 mg/ml, pH 6.1, 2 mg/ml pH 6.1 Phos […] Osmo 22, 3x/day 5 days, read-out: MEAN [choroid]): 356 nM
- concentration at 1 h (choroid, 2 mg/ml, pH 6.1, 2 mg/ml pH 6.1 Phos […] Osmo 34, 3x/day 4 days, read-out: MEAN [choroid]): 466 nM
- concentration at 1 h (choroid, 4 mg/ml, pH 6, 4 mg/ml pH 6.0 Phos 0.2% BAK 0.005% Gly 2%, 3x/day 5 days, read-out: MEAN [choroid]): 596 nM
- concentration at 1 h (choroid, 5 mg/ml, pH 6, 5 mg/ml pH 6 Phos 0.2% BAK 0.005% Gly 2% Osmo 273, 3x/day 5 days, read-out: MEAN [choroid]): 1160 nM
- concentration at 1 h (choroid, 5 mg/ml, pH 6, 5 mg/ml pH 6 Phos 0.2% BAK 0.005% Gly 2% PS80 1% Polox 0.2% Osmo 288, 3x/day 5 days, read-out: MEAN [choroid]): 612 nM
- concentration at 1 h (choroid, 6 mg/ml, pH 5.9, 6 mg/ml pH 5.9 Phos 0.05% BAK 0.005% Gly 2% PS80 1% Tylox 0.1% Polox 0.2% Osmo 270, 3x/day 4 days, read-out: MEAN [choroid]): 22.4 nM
- concentration at 1 h (choroid, 6 mg/ml, pH 5.9, 6 mg/ml pH 5.9 Phos […] Osmo 80, 3x/day 4 days, read-out: MEAN [choroid]): 823 nM
- concentration at 1 h (choroid, 6 mg/ml, pH 6.1, 6 mg/ml pH 6.1 Phos 0.05% BAK 0.005% Gly 2% PS80 1% Tylox 0.1% Osmo 248, 3x/day 5 days, read-out: MEAN [choroid]): 779 nM
- concentration at 1 h (plasma, 1 mg/ml, pH 6, 1 mg/ml pH 6.0 Phos 0.05% BAK 0.005% Gly 2% PS80 0.01% Tylox 0.2%, 3x/day 5 days, read-out: [plasma]): 3.49 nM
- concentration at 1 h (plasma, 1 mg/ml, pH 6, 1 mg/ml pH 6 Phos 0.05% BAK 0.005% Gly 2%, 3x/day 5 days, read-out: [plasma]): 4.45 nM
- concentration at 1 h (plasma, 1 mg/ml, pH 6, 1 mg/ml pH 6.0 Phos 0.2% BAK 0.005% Gly 2% PS80 1% Tylox 0.2%, 3x/day 5 days, read-out: [plasma]): 2.89 nM
- concentration at 1 h (plasma, 1 mg/ml, pH 6, 1 mg/ml pH 6.0 Phos 0.2% BAK 0.005% Gly 2%, 3x/day 5 days, read-out: [plasma]): 3.97 nM
- concentration at 1 h (plasma, 2 mg/ml, pH 6, 2 mg/ml pH 6 BAK 0.005% Gly 2% Osmo 232, 3x/day 5 days, read-out: [plasma]): 5.41 nM
- concentration at 1 h (plasma, 2 mg/ml, pH 6, 2 mg/ml pH 6.0 Phos 0.02% BAK 0.005% Gly 2% PS80 1% Tylox 0.2%, 3x/day 5 days, read-out: [plasma]): 4.46 nM
- concentration at 1 h (plasma, 2 mg/ml, pH 6, 2 mg/ml pH 6 Phos 0.05% BAK 0.005% Gly 2% Osmo 244, 3x/day 5 days, read-out: [plasma]): 5.92 nM
- concentration at 1 h (plasma, 2 mg/ml, pH 6, 2 mg/ml pH 6 Phos 0.05% BAK 0.005% Gly 2% PS80 1% Osmo 261, 3x/day 5 days, read-out: [plasma]): 4.15 nM
- concentration at 1 h (plasma, 2 mg/ml, pH 6, 2 mg/ml pH 6.0 Phos 0.05% BAK 0.005% Gly 2% PS80 1% Tylox 0.2%, 3x/day 5 days, read-out: [plasma]): 4.36 nM
- concentration at 1 h (plasma, 2 mg/ml, pH 6, 2 mg/ml pH 6.0 Phos 0.05% BAK 0.005% Gly 2%, 3x/day 5 days, read-out: [plasma]): 5.79 nM
- concentration at 1 h (plasma, 2 mg/ml, pH 6, 2 mg/ml pH 6.0 Phos 0.1% BAK 0.005% Gly 2%, 3x/day 5 days, read-out: [plasma]): 5.71 nM
- concentration at 1 h (plasma, 2 mg/ml, pH 6, 2 mg/ml pH 6 Phos 0.2% BAK 0.005% Gly 2% Osmo 257, 3x/day 5 days, read-out: [plasma]): 5.26 nM
- concentration at 1 h (plasma, 2 mg/ml, pH 6, 2 mg/ml pH 6 Phos 0.2% BAK 0.005% Gly 2% PS80 1% Osmo 281, 3x/day 5 days, read-out: [plasma]): 4.94 nM
- concentration at 1 h (plasma, 2 mg/ml, pH 6, 2 mg/ml pH 6.0 Phos 0.2% BAK 0.005% Gly 2%, 3x/day 5 days, read-out: [plasma]): 4.47 nM
- concentration at 1 h (plasma, 2 mg/ml, pH 6.1, 2 mg/ml pH 6.1 Phos […] Osmo 34, 3x/day 4 days, read-out: [plasma]): 4.81 nM
- concentration at 1 h (plasma, 4 mg/ml, pH 6, 4 mg/ml pH 6.0 Phos 0.2% BAK 0.005% Gly 2%, 3x/day 5 days, read-out: [plasma]): 5.84 nM
- concentration at 1 h (plasma, 4 mg/ml, pH 6, 4 mg/ml pH 6.0 Phos 2% BAK 0.005% Gly 2% PS80 1% Tylox 0.2%, 3x/day 5 days, read-out: [plasma]): 8.06 nM
- concentration at 1 h (plasma, 6 mg/ml, pH 5.9, 6 mg/ml pH 5.9 Phos 0.05% BAK 0.005% Gly 2% PS80 1% Tylox 0.1% Polox 0.2% Osmo 270, 3x/day 4 days, read-out: [plasma]): 15.6 nM
- concentration at 1 h (plasma, 6 mg/ml, pH 5.9, 6 mg/ml pH 5.9 Phos 0.1% BAK 0.005% Gly 2% Polox 0.2% Osmo 257, 3x/day 4 days, read-out: [plasma]): 8.43 nM
- concentration at 1 h (retina, 1 mg/ml, pH 6, 1 mg/ml pH 6.0 Phos 0.05% BAK 0.005% Gly 2% PS80 0.01% Tylox 0.2%, 3x/day 5 days, read-out: Mean [retina]): 46.8 nM
- concentration at 1 h (retina, 1 mg/ml, pH 6, 1 mg/ml pH 6.0 Phos 0.2% BAK 0.005% Gly 2% PS80 1% Tylox 0.2%, 3x/day 5 days, read-out: Mean [retina]): 32.7 nM
- concentration at 1 h (retina, 1 mg/ml, pH 6, 1 mg/ml pH 6.0 Phos 0.2% BAK 0.005% Gly 2%, 3x/day 5 days, read-out: Mean [retina]): 90.8 nM
- concentration at 1 h (retina, 2 mg/ml, pH 6, 2 mg/ml pH 6.0 Phos 0.02% BAK 0.005% Gly 2% PS80 1% Tylox 0.2%, 3x/day 5 days, read-out: Mean [retina]): 92.9 nM
- concentration at 1 h (retina, 2 mg/ml, pH 6, 2 mg/ml pH 6 Phos 0.05% BAK 0.005% Gly 2% Osmo 244, 3x/day 5 days, read-out: Mean [retina]): 121 nM
